Like-named read-outs stand apart in the source and are kept apart here.
How the values were obtained:
[1] = system: ovarian cancer (4 cell lines); assay: CellTiter-Glo Viability Assay, ovarian cancer; assay type: cell-based; conditions: Homo sapiens, inhibition of cancer cell proliferation
MCF7 = assay: CellTiter-Glo Viability Assay, breast cancer; assay type: cell-based; conditions: Homo sapiens, 96 h; MCF7, breast cancer, four days; read-out: EC50
HCC1599 = assay: CellTiter-Glo Viability Assay, breast cancer; assay type: cell-based; conditions: Homo sapiens, 96 h; HCC1599, breast cancer, four days; read-out: EC50
DU4475 = assay: CellTiter-Glo Viability Assay, breast cancer; assay type: cell-based; conditions: Homo sapiens, DU-4475, 96 h; DU4475, breast cancer, four days; read-out: EC50
T47D = assay: CellTiter-Glo Viability Assay, breast cancer; assay type: cell-based; conditions: Homo sapiens, 96 h, breast cancer, four days, read-out: EC50
BT-549 = assay: CellTiter-Glo Viability Assay, breast cancer; assay type: cell-based; conditions: Homo sapiens, 96 h; BT-549, breast cancer, four days; read-out: EC50
MDA-MB-231-Luc = assay: CellTiter-Glo Viability Assay, breast cancer; assay type: cell-based; conditions: Homo sapiens, 96 h; MDA-MB-231-Luc, breast cancer, four days; read-out: EC50
ZR-75-1 = assay: CellTiter-Glo Viability Assay, breast cancer; assay type: cell-based; conditions: Homo sapiens, 96 h; ZR-75-1, breast cancer, four days; read-out: EC50
CAMA1 = assay: CellTiter-Glo Viability Assay, breast cancer; assay type: cell-based; conditions: Homo sapiens, CAMA-1, 96 h; CAMA1, breast cancer, four days; read-out: EC50
CLK2 = target: T1, CLK2 (Homo sapiens, UniProt P49760); assay: CLK2 kinase activity assay (Z-lyte, Ser/Thr 6 peptide); assay type: biochemical; conditions: recombinant CLK2 kinase, ATP 60 μM; read-out: EC50
T1 construct: purchased Thermo Fisher (Life Technologies), Z'-LYTE Kinase Assay Kits
Protocol: All reactions were performed in duplicate.

[2] = system: colorectal cancer (6 cell lines); assay: CellTiter-Glo Viability Assay, colorectal cancer; assay type: cell-based; conditions: Homo sapiens, inhibition of cancer cell proliferation
all 50 cell lines = assay: CellTiter-Glo Viability Assay, average across all cell lines; assay type: cell-based; conditions: Homo sapiens; across all 50 cell lines; read-out: average EC50 for inhibition of cancer cell proliferation
How it was run: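 Proliferation of a multi-tissue human cancer line panel is assessed over four days at 37° C and 5% CO2, seeding 300-3,000 cells/well. Viability is quantified by CellTiter-Glo luminescence, and EC50 values are calculated.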

[3] = system: prostate cancer (5 cell lines); assay: CellTiter-Glo Viability Assay, prostate cancer; assay type: cell-based; conditions: Homo sapiens
[4] = system: haematopoietic & lymphoid tumors (13 cell lines); assay: CellTiter-Glo Viability Assay, haematopoietic & lymphoid tumors; assay type: cell-based; conditions: Homo sapiens, inhibition of cancer cell proliferation
[5] = system: pancreatic cancer (8 cell lines); assay: CellTiter-Glo Viability Assay, pancreatic cancer; assay type: cell-based; conditions: Homo sapiens, inhibition of cancer cell proliferation
[6] = system: liver cancer (3 cell lines); assay: CellTiter-Glo Viability Assay, liver cancer; assay type: cell-based; conditions: Homo sapiens, inhibition of cancer cell proliferation
[7] = system: lung cancer (4 cell lines); assay: CellTiter-Glo Viability Assay, lung cancer; assay type: cell-based; conditions: Homo sapiens, inhibition of cancer cell proliferation
[8] = PA-1, PA1 cell line, read-out: Ovarian cancer, EC50 (μM) PA1
[9] = TOV112D, TOV-112D cell line, read-out: Ovarian cancer, EC50 (μM) TOV-112D
[10] = OV-90 cell line, read-out: Ovarian cancer, EC50 (μM) OV-90
[11] = OVCAR-3 cell line, read-out: Ovarian cancer, EC50 (μM) OVCAR-3
[12] = HCT-116, HCT116 cell line, read-out: Colorectal cancer, EC50 (μM) HCT116
[13] = HT-29, HT29 cell line, read-out: Colorectal cancer, EC50 (μM) HT29
[14] = SW-620, SW620 cell line, read-out: Colorectal cancer, EC50 (μM) SW620
[15] = DLD-1 cell line, read-out: Colorectal cancer, EC50 (μM) DLD-1
[16] = SW48 cell line, read-out: Colorectal cancer, EC50 (μM) SW48
[17] = DU-145, read-out: Prostate cancer EC50 Du-145
[18] = PC-3, PC3 cell line, inhibition of cancer cell proliferation, read-out: Prostate cancer EC50 PC3
[19] = 22Rv1 cell line, inhibition of cancer cell proliferation, read-out: Prostate cancer EC50 22Rv1
[20] = LNCap clone FGC cell line, inhibition of cancer cell proliferation, read-out: Prostate cancer EC50 LNCap clone FGC
[21] = VCaP (Sigma) cell line, inhibition of cancer cell proliferation, read-out: Prostate cancer EC50 VCaP (Sigma)
[22] = DND41, DND-41 cell line, read-out: Haematopoietic & Lymphoid tumors, EC50 (μM) DND-41
[23] = MV4-11, MV-4-11 cell line, read-out: Haematopoietic & Lymphoid tumors, EC50 (μM) MV-4-11
[24] = Rec1, REC-1 cell line, read-out: Haematopoietic & Lymphoid tumors, EC50 (μM) REC-1
[25] = SU-DHL-4, SUDHL4 cell line, read-out: Haematopoietic & Lymphoid tumors, EC50 (μM) SUDHL4
[26] = HL-60 cell line, read-out: Haematopoietic & Lymphoid tumors, EC50 (μM) HL-60
[27] = JM1 cell line, read-out: Haematopoietic & Lymphoid tumors, EC50 (μM) JM1
[28] = JURKAT, Clone E6-1 cell line, read-out: Haematopoietic & Lymphoid tumors, EC50 (μM) JURKAT, Clone E6-1
[29] = JeKo-1 cell line, read-out: Haematopoietic & Lymphoid tumors, EC50 (μM) JeKo-1
[30] = KASUMI-1 cell line, read-out: Haematopoietic & Lymphoid tumors, EC50 (μM) KASUMI-1
[31] = Loucy cell line, read-out: Haematopoietic & Lymphoid tumors, EC50 (μM) Loucy
[32] = MOLT-4 cell line, read-out: Haematopoietic & Lymphoid tumors, EC50 (μM) MOLT-4
[33] = TF-1 cell line, read-out: Haematopoietic & Lymphoid tumors, EC50 (μM) TF-1
[34] = TOLEDO cell line, read-out: Haematopoietic & Lymphoid tumors, EC50 (μM) TOLEDO
[35] = BXPC-3, BxPC3 cell line, read-out: Pancreatic cancer, EC50 BxPC3
[36] = CAPAN-1, Capan1 cell line, read-out: Pancreatic cancer, EC50 Capan1
[37] = Capan-2, Capan2 cell line, read-out: Pancreatic cancer, EC50 Capan2
[38] = MIA PaCa-2 cell line, read-out: Pancreatic cancer, EC50 MIA PaCa-2
[39] = PANC 05.04 cell line, read-out: Pancreatic cancer, EC50 PANC 05.04
[40] = PANC-1 cell line, read-out: Pancreatic cancer, EC50 PANC-1
[41] = UPAFII cell line, read-out: Pancreatic cancer, EC50 UPAFII
[42] = SNU-398, SNU398 cell line, read-out: Liver cancer, EC50 SNU398
[43] = HEPG2 cell line, read-out: Liver cancer, EC50 HEPG2
[44] = PLC/PRF/5 cell line, read-out: Liver cancer, EC50 PLC/PRF/5
[45] = A-427, A427 cell line, read-out: Lung cancer, EC50 (μM) A427
[46] = HCC78, HCC-78 cell line, read-out: Lung cancer, EC50 (μM) HCC-78
[47] = NCI-H460 cell line, read-out: Lung cancer, EC50 (μM) NCI-H460
[48] = NCI-H522 cell line, read-out: Lung cancer, EC50 (μM) NCI-H522

T1 sequence (P49760 whole entry): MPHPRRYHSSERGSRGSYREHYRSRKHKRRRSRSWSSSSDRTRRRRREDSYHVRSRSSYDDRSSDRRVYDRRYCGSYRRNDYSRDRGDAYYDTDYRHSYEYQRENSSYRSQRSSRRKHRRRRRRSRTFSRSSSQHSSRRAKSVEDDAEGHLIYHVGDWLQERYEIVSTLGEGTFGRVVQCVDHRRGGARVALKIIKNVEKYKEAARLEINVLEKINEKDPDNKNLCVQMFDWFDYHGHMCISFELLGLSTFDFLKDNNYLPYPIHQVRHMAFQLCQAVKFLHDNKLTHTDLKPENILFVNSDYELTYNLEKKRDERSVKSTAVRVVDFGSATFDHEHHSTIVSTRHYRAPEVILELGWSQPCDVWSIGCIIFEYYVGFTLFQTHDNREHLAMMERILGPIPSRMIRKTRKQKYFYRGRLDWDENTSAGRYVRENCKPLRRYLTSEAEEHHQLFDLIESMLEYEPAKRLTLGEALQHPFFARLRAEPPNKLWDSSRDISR

SMILES: O=C1CCc2cccc(c2)-c2cncc(c2)NC(=O)c2n[nH]c3ccc(cc23)-c2cncc(c2)CN1 [Compound 62]
- EC50 [1, 8]: > 10 µM
- EC50 [1, 9]: > 10 µM
- EC50 [1, 10]: > 10 µM
- EC50 [1, 11]: 0.554 µM
- EC50 (MCF7): > 10 µM
- EC50 (HCC1599): 26 nM
- EC50 (DU4475): 387 nM
- EC50 (T47D): > 10000 nM
- EC50 (BT-549): > 10000 nM
- EC50 (MDA-MB-231-Luc): > 10000 nM
- EC50 (ZR-75-1): > 10000 nM
- EC50 (CAMA1): > 10000 nM
- EC50 (CLK2): 5.3 nM
- EC50 [2, 12]: > 10 µM
- EC50 [2, 13]: > 10 µM
- EC50 [2, 14]: > 10 µM
- EC50 [2, 15]: > 10 µM
- EC50 [2, 16]: 0.393 µM
- EC50 (all 50 cell lines): 8.55 µM
- EC50 [3, 17]: > 10000 nM
- EC50 [3, 18]: > 10000 nM
- EC50 [3, 19]: 7430 nM
- EC50 [3, 20]: > 10000 nM
- EC50 [3, 21]: > 10000 nM
- EC50 [4, 22]: 7.8 µM
- EC50 [4, 23]: 0.19 µM
- EC50 [4, 24]: > 10 µM
- EC50 [4, 25]: > 10 µM
- EC50 [4, 26]: > 10 µM
- EC50 [4, 27]: > 10 µM
- EC50 [4, 28]: > 10 µM
- EC50 [4, 29]: 0.452 µM
- EC50 [4, 30]: > 10 µM
- EC50 [4, 31]: > 10 µM
- EC50 [4, 32]: > 10 µM
- EC50 [4, 33]: > 10 µM
- EC50 [4, 34]: > 10 µM
- EC50 [5, 35]: > 10000 nM
- EC50 [5, 36]: > 10000 nM
- EC50 [5, 37]: > 10000 nM
- EC50 [5, 38]: > 10000 nM
- EC50 [5, 39]: > 10000 nM
- EC50 [5, 40]: > 10000 nM
- EC50 [5, 41]: > 10000 nM
- EC50 [6, 42]: 473 nM
- EC50 [6, 43]: > 10000 nM
- EC50 [6, 44]: > 10000 nM
- EC50 [7, 45]: > 10 µM
- EC50 [7, 46]: > 10 µM
- EC50 [7, 47]: > 10 µM
- EC50 [7, 48]: > 10 µM

SMILES: CN1CCN(c2cc(C(=O)Nc3cc4cc(-c5cnn(C)c5)c(F)cc4cn3)ccn2)CC1 [Compound 69]
- EC50 [1, 8]: 0.195 µM
- EC50 [1, 9]: 0.233 µM
- EC50 [1, 10]: 0.901 µM
- EC50 [1, 11]: 0.406 µM
- EC50 (MCF7): 3.34 µM
- EC50 (HCC1599): 648 nM
- EC50 (DU4475): 374 nM
- EC50 (T47D): 1290 nM
- EC50 (BT-549): 718 nM
- EC50 (MDA-MB-231-Luc): 312 nM
- EC50 (ZR-75-1): 412 nM
- EC50 (CAMA1): 1230 nM
- EC50 (CLK2): 1.9 nM
- EC50 [2, 12]: 0.156 µM
- EC50 [2, 13]: 0.318 µM
- EC50 [2, 14]: 0.125 µM
- EC50 [2, 15]: 0.265 µM
- EC50 [2, 16]: 0.131 µM
- EC50 ([2]; SW480 cell line, read-out: Colorectal cancer, EC50 (μM) SW480): 0.19 µM
- EC50 (all 50 cell lines): 0.636 µM
- EC50 [3, 17]: 748 nM
- EC50 [3, 18]: 866 nM
- EC50 [3, 19]: 316 nM
- EC50 [3, 20]: 426 nM
- EC50 [3, 21]: 3400 nM
- EC50 [4, 22]: 0.225 µM
- EC50 [4, 23]: 0.101 µM
- EC50 [4, 24]: 0.11 µM
- EC50 [4, 25]: 0.498 µM
- EC50 [4, 26]: 0.522 µM
- EC50 [4, 27]: 0.122 µM
- EC50 [4, 28]: 0.5 µM
- EC50 [4, 29]: 0.458 µM
- EC50 [4, 30]: 1 µM
- EC50 [4, 31]: 0.385 µM
- EC50 [4, 32]: 0.343 µM
- EC50 [4, 33]: 0.35 µM
- EC50 [4, 34]: 0.132 µM
- EC50 [5, 35]: 918 nM
- EC50 [5, 36]: 1020 nM
- EC50 [5, 37]: 1420 nM
- EC50 [5, 38]: 433 nM
- EC50 [5, 39]: 664 nM
- EC50 [5, 40]: 1160 nM
- EC50 [5, 41]: 281 nM
- EC50 [6, 42]: 166 nM
- EC50 [6, 43]: 372 nM
- EC50 [6, 44]: 864 nM
- EC50 [7, 45]: 0.756 µM
- EC50 [7, 46]: 0.666 µM
- EC50 [7, 47]: 0.922 µM
- EC50 [7, 48]: 0.43 µM
